Source: PubChem BioAssay AID248 (DTP/NCI, 2004)
Where “and” joins values, the source holds several entries; their conditions need not be identical. Equal values may be shown once. Toxic doses and inconclusive results are not listed.

Tested on: L1210 leukemia ip in BDF1 mice, survival T/C
Test: NCI In Vivo Anticancer Drug Screen. Data for tumor model L1210 Leukemia (intraperitoneal) in B6D2F1 (BDF1) mice
Details: endpoint: mean survival time, higher = longer survival
In short: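 Tumor was transplanted into mice, which were then dosed with test compound or vehicle alone. Survival was recorded for each group, and the treated figure was expressed relative to the control figure.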

[1] = dose: 100.0 mg/kg/injection, schedule: Q04DX003 (ip), vehicle: saline with Tween-80
[2] = dose: 200.0 mg/kg/injection, schedule: Q04DX003 (ip), vehicle: saline with Tween-80
[3] = dose: 400.0 mg/kg/injection, schedule: Q04DX003 (ip), vehicle: saline with Tween-80
[4] = dose: 100.0 mg/kg/injection, schedule: Q01DX001 (ip), vehicle: carboxymethylcellulose (CMC)
[5] = dose: 200.0 mg/kg/injection, schedule: Q01DX001 (ip), vehicle: carboxymethylcellulose (CMC)
[6] = dose: 400.0 mg/kg/injection, schedule: Q01DX001 (ip), vehicle: carboxymethylcellulose (CMC)
[7] = dose: 100.0 mg/kg/injection, schedule: Q01DX009 (ip), vehicle: Klucel (hydroxypropylcellulose) (HPC)
[8] = dose: 200.0 mg/kg/injection, schedule: Q01DX009 (ip), vehicle: Klucel (hydroxypropylcellulose) (HPC)
[9] = dose: 400.0 mg/kg/injection, schedule: Q01DX009 (ip), vehicle: Klucel (hydroxypropylcellulose) (HPC)
[10] = dose: 100.0 mg/kg/injection, schedule: Q01DX001 (ip), vehicle: other
[11] = dose: 100.0 mg/kg/injection, schedule: Q04DX003 (ip), vehicle: Klucel (hydroxypropylcellulose) (HPC)
[12] = dose: 200.0 mg/kg/injection, schedule: Q04DX003 (ip), vehicle: Klucel (hydroxypropylcellulose) (HPC)
[13] = dose: 400.0 mg/kg/injection, schedule: Q04DX003 (ip), vehicle: Klucel (hydroxypropylcellulose) (HPC)
[14] = dose: 100.0 mg/kg/injection, schedule: Q01DX009 (ip), vehicle: saline with Tween-80
[15] = dose: 200.0 mg/kg/injection, schedule: Q01DX009 (ip), vehicle: saline with Tween-80

CN(C)CCC(C(=O)N(C)C)(c1ccccc1)c1ccccc1
T/C (dose: 75.0 mg/kg/injection, schedule: Q01DX001 (ip), vehicle: carboxymethylcellulose (CMC)): 94 % of control | T/C (dose: 150.0 mg/kg/injection, schedule: Q01DX001 (ip), vehicle: carboxymethylcellulose (CMC)): 97 % of control

COc1ccc(C(=O)Nc2cccc3ccccc23)cc1
T/C (dose: 100.0 mg/kg/injection, schedule: Q01DX009 (ip), vehicle: carboxymethylcellulose (CMC)): 95 % of control | T/C (dose: 100.0 mg/kg/injection, schedule: Q04DX002 (ip), vehicle: Klucel (hydroxypropylcellulose) (HPC)): 108 % of control | T/C (dose: 100.0 mg/kg/injection, schedule: Q04DX002 (ip), vehicle: carboxymethylcellulose (CMC)): 93 % of control and 97 % of control | T/C (dose: 100.0 mg/kg/injection, schedule: Q04DX003 (ip), vehicle: carboxymethylcellulose (CMC)): 103 % of control | T/C (dose: 200.0 mg/kg/injection, schedule: Q01DX009 (ip), vehicle: carboxymethylcellulose (CMC)): 98 % of control and 90 % of control | T/C (dose: 200.0 mg/kg/injection, schedule: Q04DX002 (ip), vehicle: Klucel (hydroxypropylcellulose) (HPC)): 102 % of control | T/C (dose: 200.0 mg/kg/injection, schedule: Q04DX002 (ip), vehicle: carboxymethylcellulose (CMC)): 95 % of control and 103 % of control | T/C (dose: 200.0 mg/kg/injection, schedule: Q04DX003 (ip), vehicle: carboxymethylcellulose (CMC)): 103 % of control | T/C (dose: 400.0 mg/kg/injection, schedule: Q01DX009 (ip), vehicle: carboxymethylcellulose (CMC)): 93 % of control and 87 % of control | T/C (dose: 400.0 mg/kg/injection, schedule: Q04DX002 (ip), vehicle: Klucel (hydroxypropylcellulose) (HPC)): 112 % of control | T/C (dose: 400.0 mg/kg/injection, schedule: Q04DX002 (ip), vehicle: carboxymethylcellulose (CMC)): 100 % of control and 101 % of control | T/C (dose: 400.0 mg/kg/injection, schedule: Q04DX003 (ip), vehicle: carboxymethylcellulose (CMC)): 97 % of control

O=S(=O)(/N=C1C=C/C(=N\S(=O)(=O)c2ccccc2)c2ccccc2\1)c1ccccc1
T/C [1]: 88 % of control | T/C [2]: 90 % of control | T/C [3]: 93 % of control

CC(CC(C#N)(c1ccccc1)c1ccccc1)OS(C)(=O)=O (stereo unspecified)
T/C [4]: 94 % of control | T/C [5]: 94 % of control | T/C [6]: 94 % of control

N#CC(=C=[N-])[n+]1ccccc1
T/C (dose: 6.25 mg/kg/injection, schedule: Q01DX009 (ip), vehicle: saline): 100 % of control | T/C (dose: 12.5 mg/kg/injection, schedule: Q01DX009 (ip), vehicle: saline): 100 % of control | T/C (dose: 18.8 mg/kg/injection, schedule: Q01DX001 (ip), vehicle: saline): 108 % of control | T/C (dose: 37.5 mg/kg/injection, schedule: Q01DX001 (ip), vehicle: saline): 100 % of control

CCCCCCCC(=O)N1C(C)CCCC1C (stereo unspecified)
T/C (dose: 100.0 mg/kg/injection, schedule: Q04DX002 (ip), vehicle: saline): 114 % of control | T/C (dose: 200.0 mg/kg/injection, schedule: Q04DX002 (ip), vehicle: saline): 111 % of control | T/C (dose: 400.0 mg/kg/injection, schedule: Q04DX002 (ip), vehicle: saline): 104 % of control

CCCCCCCCCCCCCCCCCC(=O)N/N=C\c1ccc(O)c(OC)c1
T/C [7]: 95 % of control | T/C [8]: 90 % of control | T/C [9]: 88 % of control

O=C1CCC(=O)N1c1ccc(Br)cc1
T/C (dose: 50.0 mg/kg/injection, schedule: Q01DX001 (ip), vehicle: carboxymethylcellulose (CMC)): 102 % of control | T/C [4]: 102 % of control | T/C [5]: 98 % of control | T/C [6]: 98 % of control

CCCCCCCCCCCC(=O)[O][Sn]([CH2]C)([CH2]C)[O]C(=O)CCCCCCCCCCC
T/C (dose: 6.25 mg/kg/injection, schedule: Q04DX003 (ip), vehicle: saline): 112 % of control | T/C (dose: 8.75 mg/kg/injection, schedule: Q01DX009 (ip), vehicle: saline with Tween-80): 98 % of control | T/C (dose: 12.5 mg/kg/injection, schedule: Q01DX001 (ip), vehicle: saline): 103 % of control | T/C (dose: 12.5 mg/kg/injection, schedule: Q04DX003 (ip), vehicle: saline): 105 % of control | T/C (dose: 17.5 mg/kg/injection, schedule: Q01DX009 (ip), vehicle: saline with Tween-80): 121 % of control | T/C (dose: 25.0 mg/kg/injection, schedule: Q01DX001 (ip), vehicle: saline): 109 % of control | T/C (dose: 25.0 mg/kg/injection, schedule: Q04DX003 (ip), vehicle: saline): 112 % of control | T/C (dose: 35.0 mg/kg/injection, schedule: Q04DX003 (ip), vehicle: acetone): 106 % of control

CS(=O)(=O)OCCN(CCOS(C)(=O)=O)c1ccccc1
T/C [10]: 100 % of control

CCCCNC(=O)Nc1ccc(C)c(Cl)c1
T/C [7]: 96 % of control | T/C [11]: 94 % of control | T/C [8]: 94 % of control | T/C [12]: 94 % of control | T/C [9]: 89 % of control | T/C [13]: 100 % of control

CS(=O)(=O)OCC(=O)NCC(O)CNC(=O)COS(C)(=O)=O
T/C (dose: 75.0 mg/kg/injection, schedule: Q01DX015 (ip), vehicle: saline): 151 % of control | T/C (dose: 80.0 mg/kg/injection, schedule: Q01DX009 (ip), vehicle: saline): 153 % of control | T/C (dose: 120.0 mg/kg/injection, schedule: Q01DX009 (ip), vehicle: saline): 180 % of control | T/C (dose: 150.0 mg/kg/injection, schedule: Q01DX015 (ip), vehicle: saline): 164 % of control | T/C (dose: 180.0 mg/kg/injection, schedule: Q01DX009 (ip), vehicle: saline): 156 % of control and 164 % of control

O=C(NO)C(=O)NCc1ccccc1
T/C [4]: 90 % of control | T/C [5]: 96 % of control | T/C [6]: 96 % of control

COC(=O)CN(C(=S)c1ccccc1)c1ccccc1
T/C [11]: 104 % of control | T/C [12]: 96 % of control | T/C [13]: 94 % of control

SCc1c(Cl)c(Cl)c(Cl)c(Cl)c1Cl.[Hg]
T/C [11]: 93 % of control | T/C [12]: 91 % of control | T/C [13]: 93 % of control

COC(/C=N/O)c1ccccc1 (stereo unspecified)
T/C (dose: 50.0 mg/kg/injection, schedule: Q01DX009 (ip), vehicle: other): 88 % of control | T/C (dose: 100.0 mg/kg/injection, schedule: Q01DX009 (ip), vehicle: other): 88 % of control | T/C (dose: 200.0 mg/kg/injection, schedule: Q01DX009 (ip), vehicle: other): 101 % of control

COc1cc2c(cc1OC)CN1CCc3cc(OC)c(OC)cc3C1C2 (stereo unspecified)
T/C (dose: 50.0 mg/kg/injection, schedule: Q01DX009 (ip), vehicle: saline with Tween-80): 93 % of control | T/C (dose: 75.0 mg/kg/injection, schedule: Q01DX001 (ip), vehicle: saline): 100 % of control | T/C [14]: 93 % of control | T/C (dose: 150.0 mg/kg/injection, schedule: Q01DX001 (ip), vehicle: saline): 100 % of control | T/C [15]: 93 % of control | T/C (dose: 300.0 mg/kg/injection, schedule: Q01DX001 (ip), vehicle: saline): 101 % of control

CCOC(=O)CCN(CCC(=O)OCC)C1CC1c1ccccc1 (stereo unspecified)
T/C [11]: 100 % of control | T/C [12]: 95 % of control | T/C [13]: 100 % of control

O=C(O)c1cc(-c2ccc(Cl)cc2)nc2c(Cl)cccc12
T/C (dose: 20.0 mg/kg/injection, schedule: Q01DX009 (ip), vehicle: Klucel (hydroxypropylcellulose) (HPC)): 95 % of control | T/C (dose: 20.0 mg/kg/injection, schedule: Q04DX003 (ip), vehicle: Klucel (hydroxypropylcellulose) (HPC)): 107 % of control | T/C (dose: 40.0 mg/kg/injection, schedule: Q01DX009 (ip), vehicle: Klucel (hydroxypropylcellulose) (HPC)): 103 % of control | T/C (dose: 40.0 mg/kg/injection, schedule: Q04DX003 (ip), vehicle: Klucel (hydroxypropylcellulose) (HPC)): 100 % of control | T/C (dose: 80.0 mg/kg/injection, schedule: Q01DX009 (ip), vehicle: Klucel (hydroxypropylcellulose) (HPC)): 108 % of control | T/C (dose: 80.0 mg/kg/injection, schedule: Q04DX003 (ip), vehicle: Klucel (hydroxypropylcellulose) (HPC)): 97 % of control

CN(C)c1ccc(/C=C/C=N/Nc2nnc(N/N=C/C=C/c3ccc(N(C)C)cc3)c3ccccc23)cc1
T/C (dose: 50.0 mg/kg/injection, schedule: Q01DX001 (ip), vehicle: other): 109 % of control | T/C [10]: 100 % of control | T/C (dose: 200.0 mg/kg/injection, schedule: Q01DX001 (ip), vehicle: other): 103 % of control | T/C (dose: 400.0 mg/kg/injection, schedule: Q01DX001 (ip), vehicle: other): 100 % of control

CC(=O)OCC(CCC(C)C)=C(C)C
T/C [14]: 98 % of control | T/C [1]: 97 % of control | T/C [15]: 98 % of control | T/C [2]: 92 % of control | T/C (dose: 400.0 mg/kg/injection, schedule: Q01DX009 (ip), vehicle: saline with Tween-80): 102 % of control | T/C [3]: 92 % of control
